Measurements: the PolyMetriX glass transition set
± gives the standard deviation of the reports.

| SMILES | glass transition temperature |
| --- | --- |
| *C(=O)c1ccc2c(c1)C(=O)N(c1ccc(-c3cc(-c4ccc(OC)cc4)cc(-c4ccc(N5C(=O)c6ccc(*)cc6C5=O)cc4)n3)cc1)C2=O (repeat unit) | 331.00 °C |
| *CCCCCCCCCCCC(=O)N(*)C (repeat unit) | -29.00 °C |
| *Nc1ccc(NC(=O)c2cc(C(*)=O)cc(S(=O)(=O)c3ccccc3)c2)cc1 (repeat unit) | 308.00 °C |
| *CCCCCCCCCCCCOC(=O)Nc1ccc(Cc2ccc(NC(=O)O*)cc2)cc1 (repeat unit) | 43.00 °C |
| *Oc1ccc(C(c2ccc(OC(*)=S)cc2)C(CC)CC)cc1 (repeat unit) | 148.00 °C |
| *CCOCCOC(=O)CCCCCC(=O)O* (repeat unit) | -41.50 °C |
| *Oc1ccc(S(=O)(=O)c2ccc(Oc3ccc(/C=N/N=C/c4ccc(*)cc4)cc3)cc2)cc1 (repeat unit) | 151.00 °C |
| *c1ccc(Oc2ccc(S(=O)(=O)c3ccc(Oc4ccc(-c5c6c(c(*)c7ccccc57)C(=O)N(c5ccc(C(F)(F)F)cc5)C6=O)cc4)cc3)cc2)cc1 (repeat unit) | 290.00 °C |
| *c1ccc(Oc2c(C)cc(C(c3cc(C)c(Oc4ccc(N5C(=O)c6ccc(-c7ccc8c(c7)C(=O)N(*)C8=O)cc6C5=O)cc4)c(C)c3)c3cccc4ccccc34)cc2C)cc1 (repeat unit) | 289.50 °C |
| *CC(*)(C)C(=O)OCCCCn1c2ccccc2c2ccccc21 (repeat unit) | 59.20 °C |
| *OC(C)CCOC(=O)C(CCCCCCOc1ccc(/N=C/c2ccc([N+](=O)[O-])cc2)cc1)C(*)=O (repeat unit) | 3.00 °C |
| *CCCCOC(=O)c1ccc(-c2ccc(-c3ccc(C(=O)O*)cc3)cc2)cc1 (repeat unit) | 180.00 °C |
| *CCOCCOc1ccc(/C=C(\C)c2ccc(O*)cc2)cc1 (repeat unit) | 39.00 °C |
| *c1ccc(S(=O)(=O)c2ccc(N3C(=O)c4ccc(Oc5ccc6c(c5)C(=O)N(*)C6=O)cc4C3=O)cc2)cc1 (repeat unit) | 286.00 ± 34 °C |
| *CC(*)(C)C(=O)OCCCCCCCOc1ccc2cc(C(=O)Oc3ccccc3)ccc2c1 (repeat unit) | 40.00 °C |
| *CCCCC(C)CCn1c(=O)c2cc3c(=O)n(*)c(=O)c3cc2c1=O (repeat unit) | 135.00 °C |
| *CCCCCCOC(=O)C(CCCCCCP(=O)(OCC)OCC)C(=O)OCCCCCCOc1ccc(-n2on2-c2ccc(O*)cc2)cc1 (repeat unit) | 9.00 °C |
| *Oc1c(F)c(F)c(-c2c(F)c(F)c(Oc3ccc(C(c4ccc(*)cc4)(C(F)(F)F)C(F)(F)F)cc3)c(F)c2F)c(F)c1F (repeat unit) | 167.00 °C |
| *OC(=O)c1cccc(C(*)=O)c1 (repeat unit) | 130.00 °C |
| *c1ccc2c(c1)C(=O)N(c1cc(NC(=O)OCCN(CCOC(=O)Nc3cc(N4C(=O)c5ccc(C(*)(C(F)(F)F)C(F)(F)F)cc5C4=O)ccc3C)c3ccc(/N=N/c4ccc([N+](=O)[O-])cc4)cc3)ccc1C)C2=O (repeat unit) | 196.00 °C |
| *CC(*)c1c(F)c(F)c(P(=O)(O)O)c(F)c1F (repeat unit) | 330.00 °C |
| *c1ccc(N2C(=O)c3ccc(-c4ccc5c(c4)C(=O)N(c4ccc6[nH]c(*)nc6c4)C5=O)cc3C2=O)cc1 (repeat unit) | 397.50 °C |
| *C(=O)Nc1cc(NC(=O)c2ccc3[nH]c(-c4cccc(-c5nc6cc(*)ccc6[nH]5)c4)nc3c2)cc(-c2nc3ccccc3[nH]2)c1 (repeat unit) | 315.00 °C |

| SMILES | glass transition temperature |
| --- | --- |
| *CCCCCCCC(*)C (repeat unit) | -58.00 °C |
| *CCCS(=O)(=O)CCCS(=O)(=O)CCCOC(=O)c1ccccc1C(=O)O* (repeat unit) | 52.00 °C |
| */C(F)=C(\F)C(F)(C(*)(F)F)C(F)(F)F (repeat unit) | -3.00 °C |
| *Oc1ccc(Oc2cccc(C(=O)Oc3ccc(OC(=O)c4cccc(*)c4)cc3)c2)cc1 (repeat unit) | 119.00 °C |
| */C=C(\C#N)C(=O)OCCCCCCCCCCOC(=O)/C(C#N)=C/c1ccc2c(c1)c1cc(*)ccc1n2CCCCCCCCCCCCCC (repeat unit) | 35.00 °C |
| *Oc1ccc(-c2ccc(OC(=O)c3ccc(C(*)=O)cc3)cc2)cc1 (repeat unit) | 267.00 °C |
| *c1ccc2oc(-c3ccc4oc5ccc(-c6nc7cc(C(*)(C(F)(F)F)C(F)(F)F)ccc7o6)cc5c4c3)nc2c1 (repeat unit) | 195.00 °C |
| *CCCCCCCCNC(=O)CCCCCCCCCCCCCCCCCCCCC(=O)N* (repeat unit) | 48.00 °C |
| *OC(=O)CNC(=O)CNC(=O)CCCCCCCCC(=O)NCC(=O)NCC(=O)OC1COC2C(*)COC12 (repeat unit) | 47.00 °C |
| */C(C)=C(/*)CCCCC (repeat unit) | 180.00 °C |
| */C(=C/c1cc(OC)c(/C=C(\c2ccccc2)c2ccc3cc(*)ccc3c2)cc1OC)c1ccccc1 (repeat unit) | 198.00 °C |
| *c1ccc(-c2ccc(-c3cnc4cc(-c5ccc6nc(*)cnc6c5)ccc4n3)cc2)cc1 (repeat unit) | 345.50 °C |
| *c1ccc(Oc2ccc(Oc3ccc(NC(=O)c4cccc(Oc5ccc6c(c5)C(=O)N(*)C6=O)c4)cc3)cc2)cc1 (repeat unit) | 213.00 °C |
| *CC(F)(F)C(F)(F)C(F)(F)COC(=O)c1cc(C(=O)O*)cc(C(F)(F)C(F)(F)C(F)(F)C(F)(F)C(F)(F)C(F)(F)C(F)(F)F)c1 (repeat unit) | 27.00 °C |
| *C(=O)Nc1ccc(Oc2ccc(S(=O)(=O)c3ccc(Oc4ccc(NC(=O)c5ccc6c(c5)C(=O)N(c5ccc(Oc7ccc8ccc(Oc9ccc(N%10C(=O)c%11ccc(*)cc%11C%10=O)cc9)cc8c7)cc5)C6=O)cc4)cc3)cc2)cc1 (repeat unit) | 274.00 °C |
| *c1ccc(Oc2cccc(NC(=O)c3cc(NC(=O)c4ccc(OC(C)=O)cc4)cc(C(=O)Nc4cccc(Oc5ccc(-c6nnc(*)o6)cc5)c4)c3)c2)cc1 (repeat unit) | 270.00 °C |
| */C=C/c1cc(OCCCCCCCC)c(*)cc1OC (repeat unit) | 58.00 °C |
| *CC(*)c1ccccc1C(=O)OCC(C)C (repeat unit) | 127.00 °C |
| *c1cn(*)c2ccccc12 (repeat unit) | 65.00 °C |
| */C=C/C(*)(C)c1ccccc1 (repeat unit) | 52.00 °C |
| *NNC(=O)c1ccc(C(*)=O)cc1OCCCCCCCCCC (repeat unit) | 193.00 °C |
| *Oc1ccc(C2(c3ccc(OC(=O)CCCCCCCC(*)=O)cc3)c3ccccc3-c3ccccc32)cc1 (repeat unit) | 150.00 °C |
| *CC(*)c1cc(-c2ccc(C(=O)OC(C)CCCCCC)cc2)ccc1-c1ccc(C(=O)OC(C)CCCCCC)cc1 (repeat unit) | 102.00 °C |

| SMILES | glass transition temperature |
| --- | --- |
| *OC(=O)C(Cc1ccccc1)NC(=O)CCCCCCC(=O)NC(Cc1ccccc1)C(=O)OC1COC2C(*)COC12 (repeat unit) | 91.00 °C |
| *c1ccc(-c2nnc(-c3cccc(-c4nnc(*)n4-c4ccccc4)c3)n2-c2ccccc2)cc1 (repeat unit) | 272.50 °C |
| *CCN(*)C(=O)c1cc(F)c(F)c(F)c1 (repeat unit) | 65.00 °C |
| *c1ccc(Oc2ccc(-c3ccc(Oc4ccc(N5C(=O)c6ccc(Oc7ccc(C8(c9ccc(Oc%10ccc%11c(c%10)C(=O)N(*)C%11=O)cc9)CCC(C(C)(C)C)CC8)cc7)cc6C5=O)cc4)cc3C)c(C)c2)cc1 (repeat unit) | 236.00 °C |
| */C=C/C1CC(*)C2C(=O)N(c3ccc(C)cc3)C(=O)C12 (repeat unit) | 222.00 °C |
| *Nc1cc(NC(=O)c2cc(NC(=O)C(C(C)CC)N3C(=O)c4ccccc4C3=O)cc(C(*)=O)c2)ccc1C (repeat unit) | 166.00 °C |
| *c1ccc(Oc2ccc(S(=O)(=O)c3ccc(Oc4ccc(-c5cc(*)[nH]n5)cc4)cc3)cc2)cc1 (repeat unit) | 260.00 °C |
| *c1cc(C(=O)OCCC)cc(N2C(=O)CC(C3Cc4ccccc4C4C(=O)N(*)C(=O)C43)C2=O)c1 (repeat unit) | 249.00 °C |
| *C(=O)c1ccc2c(c1)C(=O)N(c1ccc(-c3ccccc3N3C(=O)c4ccc(*)cc4C3=O)cc1)C2=O (repeat unit) | 305.00 °C |
| *O[Si](C)(C)CC[Si](*)(C)C (repeat unit) | -88.00 °C |
| *c1ccc(Oc2ccc(Oc3ccc(P(=O)(c4ccccc4)c4ccc(Oc5ccc(Oc6ccc(-c7nc8cc9sc(*)nc9cc8s7)cc6)cc5)cc4)cc3)cc2)cc1 (repeat unit) | 255.00 °C |
| *CCC(*)(C)c1ccccc1 (repeat unit) | 93.00 °C |
| *[O][Ca][O]C(=O)c1ccccc1C(=O)OCCCCCOC(=O)NCCCCCCNC(=O)OCCCCCOC(=O)c1ccccc1C(*)=O (repeat unit) | -2.40 °C |
| *Oc1ccc(CC(NC(=O)CCc2ccc(OC(=O)CCCCCCC(*)=O)cc2)C(=O)OCCCC)cc1 (repeat unit) | 37.00 °C |
| *CCN(*)C(=O)c1c(F)c(F)cc(F)c1F (repeat unit) | 122.00 °C |
| *CC(CSCCCC)O* (repeat unit) | -65.00 °C |
| *CC(*)(C)C(=O)Oc1ccc(C(=O)Oc2ccc(Oc3ccccc3)cc2)cc1 (repeat unit) | 74.00 °C |
| *Oc1ccc(C(CC)(c2ccccc2)c2ccc(OC(=O)CCCCCCCCC(*)=O)cc2)cc1 (repeat unit) | 88.00 °C |
| *CC(*)C(=O)OCCC (repeat unit) [Poly(n-propyl acrylate) ] | -41.33 ± 4 °C |
| *CCCCCCCCNC(=O)CCP(C)(=O)CCC(=O)N* (repeat unit) | 52.00 °C |
| *CCCCCCCCCCC(=O)Oc1ccc(-c2ccc(OC(=O)c3ccc4c(c3)C(=O)N(*)C4=O)cc2)cc1 (repeat unit) | 61.00 °C |
| *CCCCCCNC(=O)CCCCC(=O)NCC(=O)N* (repeat unit) | 53.40 °C |
| *CCOCCOCCOCCOC(=O)CCSCCC(=O)O* (repeat unit) | -38.00 °C |
